US20060276440A1, “Treatment of inflammatory disorders” (priority 2005, published 2006)

Legend:
IL-1 pathway = assay: 4A1 Sentinel line IL-1-stimulated luciferase reporter assay; format: cell-based; conditions: Homo sapiens; 4A1 cells
Procedure: Reporter activities of Sentinel® clones were measured using the Steady-Glo® Luciferase assay system (Promega, Madison, Wis.), according to the manufacturer's instructions, and were normalized to cell numbers based on nucleic acid quantification (CyQuant® cell proliferations assay, Molecular Probes/Invitrogen, Carlsbad, Calif.). In order to identify potential anti-inflammatory compounds, the OSM-responding Sentinel® clone 4A1 was used for a library screen of approximately 1800 compounds.
Sentinel lines were developed by utilizing promoter trapping technology in combination with positive and negative selections to efficiently deliver reporter genes into endogenously regulated genetic sites. Using this approach, a Sentinel cell line, 4A1, in A549 lung carcinoma cells that responded specifically to OSM and IL-1 stimulation among a panel of cytokines and active compounds was established (FIG. 9A).
To identify compounds that inhibit OSM signaling, the collection of approximately 1800 compounds was screened using the 4A1 Sentinel line.

MMP-13 [1] = assay: IL-1/OSM-stimulated pro-MMP-13 production in SW-1353 cells (ELISA); format: cell-based, human; conditions: Homo sapiens
Description: To test the compounds identified in the preliminary reporter (luciferase) activity […]® line 4A1 screen for inhibition of OSM signaling in a more physiologically relevant environment, a human cell line involved in an inflammatory disease was adapted. The human cartilage cell line SW-1353 was selected.
In the human cartilage cell line SW-1353, while IL-1 is believed to activate expression of collagenases to a small degree and OSM is believed to have no effect on collagenase expression, a combination of IL-1 and OSM is believed to lead to a synergistic activation of collagenases to much higher levels (S. Cowell et al., Biochem J 331 (Pt 2), 453 (Apr. 15, 1998). Regulation of MMP-13 in SW-1353 cells is, therefore, believed to provide a biomarker which can be used to monitor IL-1/OSM-mediated signal transduction events in secondary assays.
The same supernatants of culture media used in the primary screen were assayed for IL-1/OSM-stimulated pro-MMP-13 production and MMP-2 production by enzyme-linked immunosorbent assay (ELISA).
(§1) For matrix metalloproteinase (MMP) measures, SW1353 cells were grown to confluence in 24 well plates, washed in DMEM (with Ham's F12) and placed in 500 ul of serum free DMEM/F-12 with 0.2% lactalbumin hydrosylate with and without OsM/IL-1. After 24 hrs, supernatants were collected and the amounts of proMMP13, totalMMP2, and proMMP1 were measured using Quantikine® ELISA kit for human MMPs (R & D systems, Minneapolis, Minn.). All MMP measures were normalized to viable cell numbers based on a tetrazolium (MTS) colorimetric measure (Promega, Madison, Wis.).

MMP-13 [2] = assay: IL-1-stimulated pro-MMP-13 production in SW1353 cells (ELISA); format: cell-based; conditions: Homo sapiens, IL-1 alone
Procedure: as §1
The human chondrosarcoma cell line, SW1353, was used as the cell system for examining CA4's effect on OSM- and IL-1-mediated signal transduction. […] Therefore, MMP-13 was used as a surrogate marker of CA4 effects on OSM and IL-1 signaling in SW1353 cells. […] This observation is in agreement with that obtained with the 4A1 Sentinel® reporter line.

p38, JNK, ERK1/2 = p38, JNK, ERK1/2 phosphorylation in SW1353 cells (FACS, immunostaining); format: cell-based, human
Procedure: SW1353 cells were seeded and treated as described above. For the flow cytometric analysis of intracellular phopho-proteins, trypsinized SW1353 cells were fixed in 1.5% formaldehyde at room temperature (RT), and permeabilized in ice cold methanol for minimum of 10 minutes. After 2× wash in wash buffer (D-PBS, with 1% FBS), cells were stained with phospho-specific antibodies (5 ug/ml final) for 20 minutes, washed 2× in wash buffer, followed by 20 minutes incubation with phycoerythrin-conjugated anti-mouse IgG (10 ug/ml final). Following 2× wash in wash buffer, cells were analyzed by flow cytometry.
For immunohistochemistry of intracellular phospho-proteins, fixation and permeabilization conditions were identical to the ones used for flow cytometric analysis. For the visualization of the phosphor-specific proteins, ImmPRESS Universal Antibody kit (Vector Laboratories, Burlingame, Calif.) was used.
The cellular and molecular mechanisms by which CA4 repressed pro-MMP-13 production, using SW1353 as the model system were investigated. […] The pathways that mediate OSM and IL-1 signal transduction were then examined. Using inhibitors that target key components of the pathways, it was shown that JAK/STAT, p38, JNK, and NF-κB pathways were important for OSM/IL-1-stimulated pro-MMP-13 production (FIG. 13B-E), but not ERK or Cox1/2 pathways (data not shown). […]

NF-κB = NF-κB reporter activity in transfected SW1353 cells; format: cell-based, human; conditions: 2 hrs pretreatment prior to IL-1/OSM, FIG. 14D
Procedure: SW1353 cells were plated at 100,000 in 24-well plates and cultured overnight in 10% FCS-DMEM/F-12. The following day, cells were transfected with 0.3 ug total DNA (pNF-kB-Luc reporter plasmid, BD biosciences San Jose, Calif.) using Lipofectamine™ 2000 (Invitrogen), according to the manufacturer's instructions. After overnight incubation, cells were washed in F12 media, pretreated with CA4 for 2 hrs, and then activated with IL-1/OSM (6 hrs) before measuring reporter activity.
The cellular and molecular mechanisms by which CA4 repressed pro-MMP-13 production, using SW1353 as the model system were investigated. […] The pathways that mediate OSM and IL-1 signal transduction were then examined. Using inhibitors that target key components of the pathways, it was shown that JAK/STAT, p38, JNK, and NF-κB pathways were important for OSM/IL-1-stimulated pro-MMP-13 production (FIG. 13B-E), but not ERK or Cox1/2 pathways (data not shown). These pathways were then examined to ascertain if activities of key components of these pathways were affected by CA4. […] Cells were pretreated with CA4 (20 nM) for 2 hrs and then activated with IL-1/OSM for 15 minutes. JNK (pT183/pY185), and ERK1/2 (pT202/pY204) phosphorylation was also not affected by CA4 (data not shown). […] Cells were pre-treated with CA4 or kamebakaurin (KA), for 2 hrs prior to IL-1/OSM activation. […]

[3] = Plasma concentration of CA4 from osmotic pump by LC/MS; format: in vivo, mouse; conditions: 33 mg/ml dose by the pump (16 mg/kg/day), day 3 and 7
Procedure: CA4 at 50, 33, and 0 (vehicle) mg/ml in osmotic pumps (0.5 ul/hr; equivalent to 25, 16 and 0 mg/kg/day) was administered subcutaneously to murine collagen-induced arthritis model usin ghte B10RIII strain 12 days after the 1st immunization (day 0) of type II collagen. The 33 mg/ml dose by the pump produced a plasma concentration of CA4 of approximately 30 nM on day 3 and 7 as measured by LC/MS. Dexamethasone at 0.2 mg/kg was injected daily subcutaneously as a positive control.

COc1ccc(/C=C\c2cc(OC)c(OC)c(OC)c2)cc1O [Combretastatin A4 (1), (Z)-5-(3,4,5-trimethoxystyryl)-2-methoxyphenol]
IC50 (IL-1 pathway): 6.9 ± 0.4 nM
IC50 (MMP-13 [1]; SW1353, SW-1353, IL-1/OSM-stimulated, secondary screen (Example 2), read-out: IC50, inhibition of MMP-13 (pro-MMP-13) production): 2 nM
IC50 (MMP-13 [1]; SW1353 cells, mean (Examples 8, 10), read-out: IC50 values by pro-MMP-13 (OSM/IL-1-mediated production)): 5.6 ± 1.3 nM
IC50 (MMP-13 [2]): 5.2 ± 1.9 nM
p38 or JNK phosphorylation (p38, JNK, ERK1/2; 20 nM, FACS or immunostaining): Nor was p38 or JNK phosphorylation affected
JNK (pT183/pY185) and ERK1/2 (pT202/pY204) phosphorylation (p38, JNK, ERK1/2; CA4 (20 nM) 2 hrs pretreatment, IL-1/OSM 15 minutes, data not shown): not affected
NF-κB reporter activity (NF-κB): did not inhibit
plasma concentration [3]: approximately 30 nM
